Here are results for one compound from BindingDB's records for doi:10.1021/jm400638v (The University of Queensland, 2013).

Where a SMILES comes first, the peptide text is derived from it. The star is where a group is joined. Palmitoyl = CCCCCCCCCCCCCCCC(=O)*

A short description of the experiment: Agonist activity at […] in human platelets by platelet aggregation assay in presence of SFLLRN.

With `CCCCCCCCCCCCCCCC(=O)N[C@@H](CCCN=C(N)N)C(=O)N[C@@H](CS)C(=O)N[C@@H](CC(C)C)C(=O)N[C@@H](CO)C(=O)N[C@@H](CO)C(=O)N[C@@H](CO)C(=O)N[C@@H](C)C(=O)N[C@H](C(=O)N[C@@H](C)C(=O)N[C@@H](CC(N)=O)C(=O)N[C@@H](CCCN=C(N)N)C(=O)N[C@@H](CO)C(=O)N[C@@H](CCCCN)C(=O)N[C@@H](CCCCN)C(=O)N[C@@H](CO)C(=O)N[C@@H](CCCN=C(N)N)C(=O)N[C@@H](CC(C)C)C(=O)N[C@@H](Cc1ccccc1)C(=O)O)C(C)C` (Palmitoyl-RCLSSSAVANRSKKSRLF-OH), the EC50 – broadly, the concentration that produces a half-maximal response – worked out at 8 µM.
